Source: ChEMBL document CHEMBL3585331, “Recent advances for FLAP inhibitors” (Bioorg Med Chem Lett, 2015)

How the values were obtained:
Blood [1] = experiment: Inhibition of LTB4 production in human whole blood; type: functional, tissue-based
[2] = biological target: T1, Arachidonate 5-lipoxygenase-activating protein (Homo sapiens, UniProt P20292); experiment: Binding affinity to FLAP (unknown origin)
T1 sequence (P20292 whole entry): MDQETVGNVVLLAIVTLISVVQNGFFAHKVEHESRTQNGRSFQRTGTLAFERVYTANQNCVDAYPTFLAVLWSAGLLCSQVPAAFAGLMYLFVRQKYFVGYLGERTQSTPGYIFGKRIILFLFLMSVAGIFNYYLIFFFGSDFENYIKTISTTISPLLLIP

Blood [3] = experiment: Inhibition of A23187-induced LTB4 production in human whole blood pre-incubated for 15 mins before A23187 stimulation for another 15 mins; type: functional, tissue-based

SMILES | IC50 (Blood [1]) [nM] | IC50 [2] [nM] | IC50 (Blood [3]) [nM]
CC(C)(C)Sc1c(CC(C)(C)C(=O)O)n(Cc2ccc(Cl)cc2)c2ccc(OCc3ccc4ccccc4n3)cc12 [QUIFLAPON] | 500 | 36 | 
CC(C)C(C)(c1ccc(-c2ccc(C(C)(C)O)nn2)cc1)c1ccc(OCc2ccccn2)cn1 (stereo unspecified) | 12 |  | 

The next lines start with the values.

IC50 (Blood [1]) [nM] | IC50 [2] [nM] | IC50 (Blood [3]) [nM] | SMILES
120 |  |  | CC(C)Cc1ccc(C(C)c2nc3ccccc3n2Cc2ccccc2Cl)cc1 (stereo unspecified)
 |  | 66 | Nc1cnc(-c2ccc(C3CCC3)c(Oc3ncccn3)c2F)cn1
62 |  |  | CC(C)(O)CNC(=O)c1ccc(C2(c3ccc(-c4cnc(N)cn4)cc3)CCCO2)cn1 (stereo unspecified)
